Experimental data: ChEMBL document CHEMBL1135259, “Azapeptides as inhibitors of the hepatitis C virus NS3 serine protease” (Bioorg Med Chem Lett, 2002)

Biological target: NS3 (Hepatitis C virus, UniProt A3EZJ3)
Experiment: Binding affinity against Hepatitis C virus NS3 protease
Design: species or system Hepacivirus hominis

Sequence of NS3 (A3EZJ3 whole entry): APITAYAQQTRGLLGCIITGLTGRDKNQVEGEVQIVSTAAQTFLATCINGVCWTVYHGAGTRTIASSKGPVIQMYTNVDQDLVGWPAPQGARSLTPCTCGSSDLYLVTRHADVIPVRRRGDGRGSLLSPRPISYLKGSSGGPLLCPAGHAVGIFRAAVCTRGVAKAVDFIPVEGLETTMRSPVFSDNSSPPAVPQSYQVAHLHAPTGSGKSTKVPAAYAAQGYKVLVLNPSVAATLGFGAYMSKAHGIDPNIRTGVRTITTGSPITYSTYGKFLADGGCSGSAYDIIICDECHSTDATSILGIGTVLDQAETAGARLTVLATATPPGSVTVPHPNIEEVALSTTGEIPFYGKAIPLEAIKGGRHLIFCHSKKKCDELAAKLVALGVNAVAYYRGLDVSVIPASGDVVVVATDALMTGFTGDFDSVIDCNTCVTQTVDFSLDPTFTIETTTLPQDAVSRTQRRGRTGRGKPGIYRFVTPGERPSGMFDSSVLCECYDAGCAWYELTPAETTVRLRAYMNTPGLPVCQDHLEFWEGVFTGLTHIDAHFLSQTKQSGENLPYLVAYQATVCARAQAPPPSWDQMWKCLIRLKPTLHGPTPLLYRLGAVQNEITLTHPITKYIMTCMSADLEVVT

Ki [µM] | SMILES
0.9 | CCN(NC(=O)[C@H]1CCCN1C(=O)[C@@H](NC(=O)[C@@H](NC(=O)[C@H](CC(=O)O)NC(=O)[C@H](CCC(=O)O)NC(=O)[C@@H](NC(=O)[C@H](CC(=O)O)NC(C)=O)[C@@H](C)O)C(C)C)C(C)C)C(=O)OC(Cl)C(Cl)(Cl)Cl (stereo not given in full)
45 | CCCN(NC(=O)[C@H]1CCCN1C(=O)[C@@H](NC(=O)[C@@H](NC(=O)[C@H](CC(=O)O)NC(=O)[C@H](CCC(=O)O)NC(=O)[C@@H](NC(=O)[C@H](CC(=O)O)NC(C)=O)[C@@H](C)O)C(C)C)C(C)C)C(=O)OCc1ccc([N+](=O)[O-])cc1
0.2 | CCCN(NC(=O)[C@H]1CCCN1C(=O)[C@@H](NC(=O)[C@@H](NC(=O)[C@H](CC(=O)O)NC(=O)[C@H](CCC(=O)O)NC(=O)[C@@H](NC(=O)[C@H](CC(=O)O)NC(C)=O)[C@@H](C)O)C(C)C)C(C)C)C(=O)OC(Cl)C(Cl)(Cl)Cl (stereo not given in full)
> 100 | CCCN(NC(=O)[C@H]1CCCN1C(=O)[C@@H](NC(=O)[C@@H](NC(=O)[C@H](CC(=O)O)NC(=O)[C@H](CCC(=O)O)NC(=O)[C@@H](NC(=O)[C@H](CC(=O)O)NC(C)=O)[C@@H](C)O)C(C)C)C(C)C)C(=O)c1cc([N+](=O)[O-])cc([N+](=O)[O-])c1
> 100 | CCCN(NC(=O)[C@H]1CCCN1C(=O)[C@@H](NC(=O)[C@@H](NC(=O)[C@H](CC(=O)O)NC(=O)[C@H](CCC(=O)O)NC(=O)[C@@H](NC(=O)[C@H](CC(=O)O)NC(C)=O)[C@@H](C)O)C(C)C)C(C)C)C(=O)c1ccc(-c2ccccc2)cc1
> 100 | CCCN(NC(=O)[C@H]1CCCN1C(=O)[C@@H](NC(=O)[C@@H](NC(=O)[C@H](CC(=O)O)NC(=O)[C@H](CCC(=O)O)NC(=O)[C@@H](NC(=O)[C@H](CC(=O)O)NC(C)=O)[C@@H](C)O)C(C)C)C(C)C)C(C)=O
100 | CCCN(NC(=O)[C@H]1CCCN1C(=O)[C@@H](NC(=O)[C@@H](NC(=O)[C@H](CC(=O)O)NC(=O)[C@H](CCC(=O)O)NC(=O)[C@@H](NC(=O)[C@H](CC(=O)O)NC(C)=O)[C@@H](C)O)C(C)C)C(C)C)C(=O)Sc1ccc(Cl)cc1
> 100 | CCCN(NC(=O)[C@H]1CCCN1C(=O)[C@@H](NC(=O)[C@@H](NC(=O)[C@H](CC(=O)O)NC(=O)[C@H](CCC(=O)O)NC(=O)[C@@H](NC(=O)[C@H](CC(=O)O)NC(C)=O)[C@@H](C)O)C(C)C)C(C)C)C(=O)C(=O)OCC
200 | CCCN(NC(=O)[C@H]1CCCN1C(=O)[C@@H](NC(=O)[C@@H](NC(=O)[C@H](CC(=O)O)NC(=O)[C@H](CCC(=O)O)NC(C)=O)C(C)C)C(C)C)C(=O)N[C@@H](CO)C(=O)N[C@@H](CCSC)C(=O)N[C@@H](CO)C(N)=O
> 100 | CCCN(NC(=O)[C@H]1CCCN1C(=O)[C@@H](NC(=O)[C@@H](NC(=O)[C@H](CC(=O)O)NC(=O)[C@H](CCC(=O)O)NC(=O)[C@@H](NC(=O)[C@H](CC(=O)O)NC(C)=O)[C@@H](C)O)C(C)C)C(C)C)C(=O)c1ccc(C#N)cc1
> 100 | CCCN(NC(=O)[C@H]1CCCN1C(=O)[C@@H](NC(=O)[C@@H](NC(=O)[C@H](CC(=O)O)NC(=O)[C@H](CCC(=O)O)NC(=O)[C@@H](NC(=O)[C@H](CC(=O)O)NC(C)=O)[C@@H](C)O)C(C)C)C(C)C)C(=O)CCl
> 100 | CCCN(NC(=O)[C@H]1CCCN1C(=O)[C@@H](NC(=O)[C@@H](NC(=O)[C@H](CC(=O)O)NC(=O)[C@H](CCC(=O)O)NC(=O)[C@@H](NC(=O)[C@H](CC(=O)O)NC(C)=O)[C@@H](C)O)C(C)C)C(C)C)C(=O)c1ccc(C(F)(F)F)cc1
> 100 | CCCN(NC(=O)[C@H]1CCCN1C(=O)[C@@H](NC(=O)[C@@H](NC(=O)[C@H](CC(=O)O)NC(=O)[C@H](CCC(=O)O)NC(=O)[C@@H](NC(=O)[C@H](CC(=O)O)NC(C)=O)[C@@H](C)O)C(C)C)C(C)C)C(=O)OC(C)(C)C(Cl)(Cl)Cl
> 100 | CCCN(NC(=O)[C@H]1CCCN1C(=O)[C@@H](NC(=O)[C@@H](NC(=O)[C@H](CC(=O)O)NC(=O)[C@H](CCC(=O)O)NC(=O)[C@@H](NC(=O)[C@H](CC(=O)O)NC(C)=O)[C@@H](C)O)C(C)C)C(C)C)C(=O)CBr
> 100 | CCCN(NC(=O)[C@H]1CCCN1C(=O)[C@@H](NC(=O)[C@@H](NC(=O)[C@H](CC(=O)O)NC(=O)[C@H](CCC(=O)O)NC(=O)[C@@H](NC(=O)[C@H](CC(=O)O)NC(C)=O)[C@@H](C)O)C(C)C)C(C)C)C(=O)CC
20 | CCCN(NC(=O)[C@H]1CCCN1C(=O)[C@@H](NC(=O)[C@@H](NC(=O)[C@H](CC(=O)O)NC(=O)[C@H](CCC(=O)O)NC(=O)[C@@H](NC(=O)[C@@H](N)CC(=O)O)[C@@H](C)O)C(C)C)C(C)C)C(=O)N[C@@H](CO)C(=O)N[C@@H](CCSC)C(=O)N[C@@H](CO)C(=O)N[C@@H](Cc1ccc(O)cc1)C(=O)N[C@H](C(=O)N[C@@H](Cc1c[nH]c2ccccc12)C(=O)N[C@H](C(=O)NCC(=O)N[C@@H](CCCCN)C(=O)O)[C@@H](C)O)[C@@H](C)O
200 | CCCN(NC(=O)[C@H]1CCCN1C(=O)[C@@H](NC(=O)[C@@H](NC(=O)[C@H](CC(=O)O)NC(=O)[C@H](CCC(=O)O)NC(=O)[C@@H](NC(=O)[C@H](CC(=O)O)NC(C)=O)[C@@H](C)O)C(C)C)C(C)C)C(=O)N[C@@H](CO)C(=O)N[C@@H](CCSC)C(=O)N[C@@H](CO)C(=O)O
> 100 | CCCN(NC(=O)[C@H]1CCCN1C(=O)[C@@H](NC(=O)[C@@H](NC(=O)[C@H](CC(=O)O)NC(=O)[C@H](CCC(=O)O)NC(=O)[C@@H](NC(=O)[C@H](CC(=O)O)NC(C)=O)[C@@H](C)O)C(C)C)C(C)C)C(=O)c1cc(C(F)(F)F)cc(C(F)(F)F)c1
14 | CCCN(NC(=O)[C@H]1CCCN1C(=O)[C@@H](NC(=O)[C@@H](NC(=O)[C@H](CC(=O)O)NC(=O)[C@H](CCC(=O)O)NC(=O)[C@@H](NC(=O)[C@H](CC(=O)O)NC(C)=O)[C@@H](C)O)C(C)C)C(C)C)C(=O)OCC(Cl)(Cl)Cl
> 100 | CCCCC(=O)N(CCC)NC(=O)[C@H]1CCCN1C(=O)[C@@H](NC(=O)[C@@H](NC(=O)[C@H](CC(=O)O)NC(=O)[C@H](CCC(=O)O)NC(=O)[C@@H](NC(=O)[C@H](CC(=O)O)NC(C)=O)[C@@H](C)O)C(C)C)C(C)C
80 | CCCN(NC(=O)[C@H]1CCCN1C(=O)[C@@H](NC(=O)[C@@H](NC(=O)[C@H](CC(=O)O)NC(=O)[C@H](CCC(=O)O)NC(=O)[C@@H](NC(=O)[C@H](CC(=O)O)NC(C)=O)[C@@H](C)O)C(C)C)C(C)C)C(=O)OCc1ccccc1
> 100 | CCCN(NC(=O)[C@H]1CCCN1C(=O)[C@@H](NC(=O)[C@@H](NC(=O)[C@H](CC(=O)O)NC(=O)[C@H](CCC(=O)O)NC(=O)[C@@H](NC(=O)[C@H](CC(=O)O)NC(C)=O)[C@@H](C)O)C(C)C)C(C)C)C(=O)C(F)(F)F
> 100 | CCCN(NC(=O)[C@H]1CCCN1C(=O)[C@@H](NC(=O)[C@@H](NC(=O)[C@H](CC(=O)O)NC(=O)[C@H](CCC(=O)O)NC(=O)[C@@H](NC(=O)[C@H](CC(=O)O)NC(C)=O)[C@@H](C)O)C(C)C)C(C)C)C(=O)c1ccc([N+](=O)[O-])cc1
> 100 | CCCN(NC(=O)[C@H]1CCCN1C(=O)[C@@H](NC(=O)[C@@H](NC(=O)[C@H](CC(=O)O)NC(=O)[C@H](CCC(=O)O)NC(=O)[C@@H](NC(=O)[C@H](CC(=O)O)NC(C)=O)[C@@H](C)O)C(C)C)C(C)C)S(=O)(=O)CCl
> 100 | CCCC(=O)N(CCC)NC(=O)[C@H]1CCCN1C(=O)[C@@H](NC(=O)[C@@H](NC(=O)[C@H](CC(=O)O)NC(=O)[C@H](CCC(=O)O)NC(=O)[C@@H](NC(=O)[C@H](CC(=O)O)NC(C)=O)[C@@H](C)O)C(C)C)C(C)C
20 | CCCN(NC(=O)[C@H]1CCCN1C(=O)[C@@H](NC(=O)[C@@H](NC(=O)[C@H](CC(=O)O)NC(=O)[C@H](CCC(=O)O)NC(C)=O)C(C)C)C(C)C)C(=O)N[C@@H](CO)C(=O)N[C@@H](CCSC)C(=O)N[C@@H](CO)C(=O)N[C@@H](Cc1ccc(O)cc1)C(=O)N[C@H](C(=O)N[C@@H](Cc1c[nH]c2ccccc12)C(=O)N[C@H](C(=O)NCC(=O)N[C@@H](CCCCN)C(=O)O)[C@@H](C)O)[C@@H](C)O
> 100 | CCCN(NC(=O)[C@H]1CCCN1C(=O)[C@@H](NC(=O)[C@@H](NC(=O)[C@H](CC(=O)O)NC(=O)[C@H](CCC(=O)O)NC(=O)[C@@H](NC(=O)[C@H](CC(=O)O)NC(C)=O)[C@@H](C)O)C(C)C)C(C)C)C(=O)c1c(F)c(F)c(F)c(F)c1F

SMILES | Ki [µM]
CCCN(NC(=O)[C@H]1CCCN1C(=O)[C@@H](NC(=O)[C@@H](NC(=O)[C@H](CC(=O)O)NC(=O)[C@H](CCC(=O)O)NC(=O)[C@@H](NC(=O)[C@H](CC(=O)O)NC(C)=O)[C@@H](C)O)C(C)C)C(C)C)C(=O)c1ccc(S(=O)(=O)F)cc1 | > 100
CCCN(NC(=O)[C@H]1CCCN1C(=O)[C@@H](NC(=O)[C@@H](NC(=O)[C@H](CC(=O)O)NC(=O)[C@H](CCC(=O)O)NC(=O)[C@@H](NC(=O)[C@H](CC(=O)O)NC(C)=O)[C@@H](C)O)C(C)C)C(C)C)C(=O)Oc1ccc(Cl)cc1 | 16
CCCN(NC(=O)[C@H]1CCCN1C(=O)[C@@H](NC(=O)[C@@H](NC(=O)[C@H](CC(=O)O)NC(=O)[C@H](CCC(=O)O)NC(=O)[C@@H](NC(=O)[C@H](CC(=O)O)NC(C)=O)[C@@H](C)O)C(C)C)C(C)C)C(=O)Oc1ccccc1[N+](=O)[O-] | 9
CCCN(NC(=O)[C@H]1CCCN1C(=O)[C@@H](NC(=O)[C@@H](NC(C)=O)C(C)C)C(C)C)C(=O)Oc1ccc([N+](=O)[O-])cc1 | 100
CCCN(NC(=O)[C@H]1CCCN1C(=O)[C@@H](NC(=O)[C@@H](NC(=O)[C@H](CC(=O)O)NC(=O)[C@H](CCC(=O)O)NC(=O)[C@@H](NC(=O)[C@H](CC(=O)O)NC(C)=O)[C@@H](C)O)C(C)C)C(C)C)C(=O)Oc1ccccc1 | 8
CCN(NC(=O)[C@H]1CCCN1C(=O)[C@@H](NC(=O)[C@@H](NC(=O)[C@H](CC(=O)O)NC(=O)[C@H](CCC(=O)O)NC(=O)[C@@H](NC(=O)[C@H](CC(=O)O)NC(C)=O)[C@@H](C)O)C(C)C)C(C)C)C(=O)Oc1ccc([N+](=O)[O-])cc1 | > 100
CCCN(NC(=O)[C@H]1CCCN1C(=O)[C@@H](NC(=O)[C@@H](NC(=O)[C@H](CC(=O)O)NC(=O)[C@H](CCC(=O)O)NC(C)=O)C(C)C)C(C)C)C(=O)Oc1ccc([N+](=O)[O-])cc1 | 6
CCCN(NC(=O)[C@H]1CCCN1C(=O)[C@@H](NC(=O)[C@@H](NC(=O)[C@H](CC(=O)O)NC(C)=O)C(C)C)C(C)C)C(=O)Oc1ccc([N+](=O)[O-])cc1 | 7
